Reference: patent US8097728B2, “Iminosugar compounds with antiflavirus activity” (Philadelphia Health & Education Corporation, priority 2007, dated 2012)

Columns and labels:
ER glucosidase = details: 6000 uM; cited from earlier work
HBV = HBV antigen assay: LHBs and MHBs secreted by HepG2.2.15 cells, immunoblot; type: cell-based, Hepatitis B virus; details: 6000 uM (6 mM), 7 days, FIG. 6B
Experimental: MHBs and LHBs are HBV envelope proteins that are sensitive to glucosidase inhibition and inhibition of these important viral glycoproteins serves as a surrogate for HBV growth. […] To assess the activity of this compound in the context of viral replication, HepG2 2.2.15 cells were incubated with the indicated DNJ derived compound. HepG 2.2.15 cells secrete readily detectable amounts of MHBs and LHBs into the culture medium. After 7 days of incubation, the amount of HBV M and L in the culture medium was determined by western blot. […] The nature of the selective antiviral activity is not known, but may be due to cell specific activity since HBV is studied in human liver derived hepatoblastoma HepG2 cells and BVDV and WNV were studied in MDBK and BHK cells, respectively.
HBV antigen assay: Antiviral activity against HBV was determined using HepG2.2.15 cells, which contain a dimer of the HBV genome and express all viral gene products, including envelope glycoproteins (Sells, Chen, and Acs, 1987). Briefly, HepG2.2.15 cells were seeded in 24 well trays, and allowed to grow to confluence prior to addition of drug, as described previously (Simsek et al., 2005). After seven days of treatment, supernatants were harvested and assayed for the presence of the Large Hepatitis B (LHBs) and middle Hepatitis B (MHBs) glycoproteins by electrophoresis through 12% polyacrylamide gels and immunoblotting with a polyclonal antibody that recognizes the pre-S2 region of the LHBs and MHBs proteins (Research Diagnostics Inc., Flanders, N.J.) as described (Simsek et al., 2005). Quantitation was performed using AlphaEase software (Alphalnnotech).

SMILES: OC[C@H]1NC[C@H](O)[C@@H](O)[C@@H]1O [DNJ, 1,5-dideoxy-1,5-imino-D-glucitol, reference compound]
- inhibition of the ER glucosidase (ER glucosidase): at least 90%
- reduction of MHBs and LHBs in culture medium (in words) (HBV): antiviral activity at this dose is consistent with previous findings
